The supplement of paper PMC10307832

Tests used:
Experiment in all cases: relative viability (nuclei count vs DMSO), 5 days (fraction); higher = more cells survive
[1] = compound: COc1cc(-c2nn([C@H]3CC[C@H](N4CCN(C(C)=O)CC4)CC3)c3ncnc(N)c23)ccc1NC(=O)c1cc2ccccc2n1C + CC(C)C[C@H](NC(=O)[C@H](Cc1ccccc1)NC(=O)c1cnccn1)B(O)O [Bortezomib] (partner 0.002 µM)
How it was run: (§1)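 Cells from lung cancer lines were seeded into 1536-well plates and, one day later, dosed by pin tool. Treatments were either a single drug or a fixed dose of an anchor drug with five library-drug doses (not always all listed) in √10 steps. After 5 days, nuclei were stained in a one-step fixation (final 0.05% Triton X-100, 1% formaldehyde, 1 ug/ml Hoechst) and counted on 4× images, and relative viability is the treated-to-vehicle nuclei ratio, as the median of duplicate plates.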

[2] = compound: COc1cc(-c2nn([C@H]3CC[C@H](N4CCN(C(C)=O)CC4)CC3)c3ncnc(N)c23)ccc1NC(=O)c1cc2ccccc2n1C + N=C(N)NC(=N)NCCc1ccccc1 [Phenformin] (partner 250 µM)
How it was run: as §1

[3] = compound: CO[C@@H]1[C@H](N(C)C(=O)c2ccccc2)C[C@H]2O[C@]1(C)n1c3ccccc3c3c4c(c5c6ccccc6n2c5c31)C(=O)NC4 [Midostaurin] + COc1cccc2cc(-c3nc([C@H]4CC[C@H](C(=O)O)CC4)n4ncnc(N)c34)[nH]c12 [OSI-027] (partner 0.5 µM)
How it was run: as §1

[4] = compound: CO[C@@H]1[C@H](N(C)C(=O)c2ccccc2)C[C@H]2O[C@]1(C)n1c3ccccc3c3c4c(c5c6ccccc6n2c5c31)C(=O)NC4 [Midostaurin] + C[C@@H](Oc1cc(-c2cnn(C3CCNCC3)c2)cnc1N)c1c(Cl)ccc(F)c1Cl [Crizotinib] (partner 1 µM)
How it was run: as §1

[5] = compound: COc1cc(-c2nn([C@H]3CC[C@H](N4CCN(C(C)=O)CC4)CC3)c3ncnc(N)c23)ccc1NC(=O)c1cc2ccccc2n1C + Nc1nc2[nH]cc(CCc3ccc(C(=O)N[C@@H](CCC(=O)O)C(=O)O)cc3)c2c(=O)[nH]1 [Pemetrexed] (partner 0.2 µM)
How it was run: as §1

UMC-11
relative viability ([1]; first compound 0.0128 µM): 0.728
relative viability ([1]; first compound 0.04048 µM): 0.687
relative viability ([1]; first compound 0.128 µM): 0.668
relative viability ([1]; first compound 1.28 µM): 0.655
relative viability ([2]; first compound 0.0128 µM): 0.285
relative viability ([2]; first compound 0.04048 µM): 0.336
relative viability ([2]; first compound 0.128 µM): 0.311
relative viability ([2]; first compound 1.28 µM): 0.279
relative viability ([3]; first compound 0.01 µM): 0.473
relative viability ([3]; first compound 0.03162 µM): 0.463
relative viability ([3]; first compound 0.1 µM): 0.536
relative viability ([3]; first compound 0.3162 µM): 0.293
relative viability ([4]; first compound 0.01 µM): 0.553
relative viability ([4]; first compound 0.03162 µM): 0.53
relative viability ([4]; first compound 0.1 µM): 0.447
relative viability ([4]; first compound 0.3162 µM): 0.179
relative viability ([5]; first compound 0.0128 µM): 0.694
relative viability ([5]; first compound 0.04048 µM): 0.865
relative viability ([5]; first compound 0.128 µM): 0.809
relative viability ([5]; first compound 1.28 µM): 0.576
